In article PMC13494539 (Cell Reports Methods, 2026):

Target: CRL4^CRBN-pomalidomide-SALL4 ZF1-ZF2 (aa 378–453) ternary complex (Homo sapiens, UniProt Q96SW2+Q9UJQ4)
Settings: presence vs absence of pomalidomide

Chain of CRL4^CRBN-pomalidomide-SALL4 ZF1-ZF2 (aa 378–453) ternary complex (Q9UJQ4 378-453 limits assumed): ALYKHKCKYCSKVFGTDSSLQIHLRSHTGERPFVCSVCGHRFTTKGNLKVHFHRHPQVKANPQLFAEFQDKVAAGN
Chain of CRL4^CRBN-pomalidomide-SALL4 ZF1-ZF2 (aa 378–453) ternary complex (Q96SW2 whole entry, the tested form may be a part): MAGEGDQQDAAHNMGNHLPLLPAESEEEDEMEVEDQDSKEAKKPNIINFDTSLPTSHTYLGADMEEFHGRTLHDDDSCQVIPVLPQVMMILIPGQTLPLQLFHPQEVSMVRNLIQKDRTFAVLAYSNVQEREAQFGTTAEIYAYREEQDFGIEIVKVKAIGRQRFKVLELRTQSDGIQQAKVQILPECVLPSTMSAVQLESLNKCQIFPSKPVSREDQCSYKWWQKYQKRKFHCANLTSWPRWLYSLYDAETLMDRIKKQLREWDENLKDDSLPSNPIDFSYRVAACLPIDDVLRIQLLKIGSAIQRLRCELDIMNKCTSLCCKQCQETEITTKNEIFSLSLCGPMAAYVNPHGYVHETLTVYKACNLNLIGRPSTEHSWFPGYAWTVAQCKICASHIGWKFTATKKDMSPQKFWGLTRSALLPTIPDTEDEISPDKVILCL
Chain of CRL4^CRBN-pomalidomide-SALL4 ZF1-ZF2 (aa 378–453) ternary complex (Q16531 whole entry partner, the tested form may be a part): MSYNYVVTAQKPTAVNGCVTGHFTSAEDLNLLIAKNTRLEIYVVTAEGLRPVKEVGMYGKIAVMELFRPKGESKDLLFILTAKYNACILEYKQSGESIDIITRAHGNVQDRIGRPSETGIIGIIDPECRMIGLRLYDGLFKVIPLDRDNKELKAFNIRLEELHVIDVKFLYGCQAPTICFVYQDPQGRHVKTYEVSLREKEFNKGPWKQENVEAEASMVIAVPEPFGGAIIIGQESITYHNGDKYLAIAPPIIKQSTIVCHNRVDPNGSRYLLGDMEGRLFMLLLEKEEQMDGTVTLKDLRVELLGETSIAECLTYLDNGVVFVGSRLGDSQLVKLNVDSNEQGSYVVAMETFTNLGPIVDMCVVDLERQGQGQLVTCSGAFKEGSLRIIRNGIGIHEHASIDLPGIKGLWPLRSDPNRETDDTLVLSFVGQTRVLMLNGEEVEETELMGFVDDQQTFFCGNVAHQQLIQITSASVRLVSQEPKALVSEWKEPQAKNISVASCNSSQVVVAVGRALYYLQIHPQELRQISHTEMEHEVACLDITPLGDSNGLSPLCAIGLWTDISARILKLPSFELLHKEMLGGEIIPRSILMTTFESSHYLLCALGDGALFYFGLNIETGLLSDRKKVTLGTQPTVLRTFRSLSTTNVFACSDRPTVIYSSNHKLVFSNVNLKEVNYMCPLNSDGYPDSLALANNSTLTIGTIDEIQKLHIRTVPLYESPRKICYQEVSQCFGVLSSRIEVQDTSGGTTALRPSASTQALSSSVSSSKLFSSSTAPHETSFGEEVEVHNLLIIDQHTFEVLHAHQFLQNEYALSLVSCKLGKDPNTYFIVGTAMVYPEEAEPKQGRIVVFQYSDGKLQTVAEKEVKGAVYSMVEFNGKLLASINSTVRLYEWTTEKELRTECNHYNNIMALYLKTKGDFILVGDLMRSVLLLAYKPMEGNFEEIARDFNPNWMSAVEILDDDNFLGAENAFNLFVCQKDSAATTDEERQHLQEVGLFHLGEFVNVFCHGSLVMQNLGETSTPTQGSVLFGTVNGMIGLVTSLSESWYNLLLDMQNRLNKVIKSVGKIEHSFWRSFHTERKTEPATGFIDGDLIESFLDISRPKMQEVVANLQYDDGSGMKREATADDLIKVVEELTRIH
Chain of CRL4^CRBN-pomalidomide-SALL4 ZF1-ZF2 (aa 378–453) ternary complex (Q13619 whole entry partner, the tested form may be a part): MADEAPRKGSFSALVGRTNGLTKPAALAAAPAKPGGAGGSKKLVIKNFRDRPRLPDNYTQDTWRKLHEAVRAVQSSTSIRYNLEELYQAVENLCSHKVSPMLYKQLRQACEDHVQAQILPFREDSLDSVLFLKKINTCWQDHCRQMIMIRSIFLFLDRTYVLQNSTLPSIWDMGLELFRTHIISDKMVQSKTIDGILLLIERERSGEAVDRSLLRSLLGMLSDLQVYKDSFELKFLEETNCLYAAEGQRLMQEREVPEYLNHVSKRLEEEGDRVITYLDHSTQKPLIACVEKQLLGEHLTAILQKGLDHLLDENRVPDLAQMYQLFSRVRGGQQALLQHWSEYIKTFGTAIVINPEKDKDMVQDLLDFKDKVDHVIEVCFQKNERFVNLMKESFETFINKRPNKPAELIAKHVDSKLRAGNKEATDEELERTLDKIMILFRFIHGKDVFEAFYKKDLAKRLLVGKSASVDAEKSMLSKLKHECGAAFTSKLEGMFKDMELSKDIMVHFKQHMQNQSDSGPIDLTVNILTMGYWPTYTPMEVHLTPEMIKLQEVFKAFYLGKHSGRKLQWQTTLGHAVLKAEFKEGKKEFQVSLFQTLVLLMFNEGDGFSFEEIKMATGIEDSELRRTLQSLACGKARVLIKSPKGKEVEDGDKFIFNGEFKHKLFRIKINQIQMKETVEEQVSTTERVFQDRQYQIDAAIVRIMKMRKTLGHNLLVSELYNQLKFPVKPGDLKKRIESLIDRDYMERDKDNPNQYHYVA
Chain of CRL4^CRBN-pomalidomide-SALL4 ZF1-ZF2 (aa 378–453) ternary complex (P62877 whole entry partner, the tested form may be a part): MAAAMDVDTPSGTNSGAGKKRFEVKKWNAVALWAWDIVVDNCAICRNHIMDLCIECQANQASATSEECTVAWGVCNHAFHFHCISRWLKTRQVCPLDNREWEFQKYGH
Chain of CRL4^CRBN-pomalidomide-SALL4 ZF1-ZF2 (aa 378–453) ternary complex (Q15843 1-76 partner limits assumed): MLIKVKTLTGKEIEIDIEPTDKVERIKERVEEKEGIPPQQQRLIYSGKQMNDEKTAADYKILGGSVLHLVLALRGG

enhancement of SALL4 recruitment by CRL4^CRBN in the presence of pomalidomide: more than 10 fold
SMILES: Nc1cccc2c1C(=O)N(C1CCC(=O)NC1=O)C2=O (stereo not shown) [Pomalidomide]
